Results on three compounds are retold here after ChEMBL document CHEMBL4602628, “Design, synthesis, and enzymatic characterization of quinazoline-based CYP1A2 inhibitors” (Bioorg Med Chem Lett, 2020).

For this assay, the target named is T1, Cytochrome P450 1A2 (Homo sapiens, UniProt P05177).
T1 sequence (P05177 whole entry): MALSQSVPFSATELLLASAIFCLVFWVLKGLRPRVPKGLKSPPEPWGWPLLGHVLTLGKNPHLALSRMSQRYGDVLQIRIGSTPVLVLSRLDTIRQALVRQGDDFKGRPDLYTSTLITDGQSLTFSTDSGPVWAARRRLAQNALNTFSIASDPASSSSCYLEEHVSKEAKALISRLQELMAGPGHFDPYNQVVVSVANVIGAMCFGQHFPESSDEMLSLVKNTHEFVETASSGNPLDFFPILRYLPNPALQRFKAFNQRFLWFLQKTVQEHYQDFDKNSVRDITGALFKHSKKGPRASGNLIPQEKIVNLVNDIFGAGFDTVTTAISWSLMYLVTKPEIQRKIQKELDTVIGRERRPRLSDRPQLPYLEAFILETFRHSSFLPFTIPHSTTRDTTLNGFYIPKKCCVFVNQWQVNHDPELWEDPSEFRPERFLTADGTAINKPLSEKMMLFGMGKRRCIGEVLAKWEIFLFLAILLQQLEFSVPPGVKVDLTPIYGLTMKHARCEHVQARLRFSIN
Put plainly: Inhibition of recombinant human CYP1A2 using luciferin-ME as substrate preincubated for 10 mins followed by NADPH addition and measured after 10 to 30 mins by P450-Glo assay.

pIC50: −log10 of the molar value.

For orientation: pIC50 means −log10 of the IC50, conventionally taken in molar units. As for `c1ccc2nc(-c3ccnc4ccccc34)ncc2c1`, the pIC50 is 6.02.

In the case of `O=[N+]([O-])c1cccc(-c2ncc3ccccc3n2)c1`, the pIC50 was 5.92. Take `CN(C)c1ccc(-c2ncc3ccccc3n2)cc1`: the pIC50 was 5.38.
